The numbers were not newly measured in patent US20110028397A1, “Use of Urokinase Type Plasminogen Activator Inhibitors for the Treatment of Corneal Disorders” (priority 2007, published 2011), which cites them from elsewhere.

The conditions of data set [1]: in vivo, sc.
For data set [2] the following is noted: eye drop prepared freshly daily, stored in refrigerator between uses.
The target in a further data set is thrombin (Homo sapiens, UniProt P00734).

Regarding iBuOCO-D-Ser-Ala-Arg-aldehyde, the biological availability in data set [1] was 87%.
Take `N=C(N)NCCC[C@@H](C=O)NC(=O)[C@@H]1CCCN1C(=O)[C@H](N)Cc1ccccc1` [Ald-1, D-Phe-Pro-Arg-aldehyde]: where the note is “in vitro and in vivo”, the anticoagulant activity result was “significant anticoagulant activity”. The “antithrombotic effect in in vivo studies” value (in vivo) is “effective antithrombotic drug”. Moreover, in data set [2], the “inhibitory activity on storage” value was “retains its inhibitory activity”. Moreover, the inhibition constant (Ki) at thrombin is 75 nM.

In general, Ki refers to a dissociation constant, usually derived from enzyme kinetics or from competition with a known ligand.
